The test system of series [1] is C. albicans (ATCC 36082). Briefly: microbe, parasite or virus in culture. To be noted: Candida albicans, ATCC36082, 24 h, read-out: MIC C. albicans (ATCC 36082). As for the experimental part:
Candida albicans (ATCC 36082) was cultured on Sabourad Dextrose Agar (SDA). A single colony was inoculated in Sabouraud Dextrose Broth (SDB) medium and grown overnight at 37 °C while shaking. The next day, the susceptibility of C. albicans was tested using a broth microdilution assay. Peptide analogs were diluted in SDB media by two-fold dilution, resulting in 100 µL of medium containing increasing concentrations of analogs. The overnight culture (turbidity at OD600 = 1) was 1000× diluted in SDB. Then 100 µL of this suspension was added to each well, resulting in a final 200 µL suspension containing 2–4 × 10^5 CFU/mL. The plate was incubated at 37 °C for 24 h. The next day, MIC (Minimum Inhibitory Concentration) values were determined as the concentrations of peptides causing > 99% inhibition of yeast growth.

Series [2] has as its system S. aureus (NCTC 13277). As to the kind of experiment: microbe, parasite or virus in culture. To be noted: Staphylococcus aureus, NCTC13277, read-out: MIC S. aureus (NCTC 13277).
Series [3] has as its system human cervical cancer (HeLa) cells. Briefly: cells. The format is cell-based. To be noted: Homo sapiens, HeLa; MTT, 24 h exposure; read-out: IC50 on Cervical Cancer (HeLa). As for the experimental part:
(§1) Human breast cancer (MCF-7) and human cervical cancer (HeLa) cells were obtained from the cell culture bank of PCMD in ICCBS, University of Karachi. These cells were maintained in Dulbecco’s Modified Eagle Medium (DMEM), supplemented with 10% fetal bovine serum, and incubated at 37 °C and 5% CO2. The antiproliferative activity of the samples was determined by a MTT assay. Briefly, the cells were washed with PBS and trypsinized. After determination of the cell number using Malassez cell counting, 100 µL of the cell suspension were seeded in a 96-well plate at the density of 6000 cells/well and incubated at 37 °C and 5% CO2. After 24 h, the cells were treated with increasing concentrations of analogs. The next day, media was removed and 200 µL of MTT dye (0.5 mg/mL) was added in each well and incubated for 3 h at 37 °C in 5% CO2 incubator. Then, the media was removed and 100 µL of DMSO was added to solubilize formazan crystals. After one minute of shaking, the absorbance was recorded at 540 nm in microplate reader (Multiskan GO, ThermoScientific, Waltham, MA, USA). Finally, the percent inhibition of proliferation was calculated using the following formula: % inhibition of proliferation=O.D of treated well−O.D of media control/O.D of untreated control−O.D of media control×100

Series [4] has as its system Human breast cancer (MCF-7) cells. As to the kind of experiment: cells. Type of series: cell-based. The conditions noted are these: Homo sapiens, MCF7; MTT, 24 h exposure; read-out: IC50 on Breast Cancer (MCF-7). How it is done: as §1
Series [5] deals with B. subtilis (ATCC 23857). As to the kind of experiment: Antibacterial broth microdilution MIC assay. The format is cell-based, Bacillus subtilis. The conditions noted are these: Bacillus subtilis, ATCC23857; >99% inhibition of growth, MH broth, 20-22 h, 37 °C. How it is done: (§2) The antibacterial activity of peptide analogs was tested against different bacterial strains, i.e., Salmonella enterica subsp. enterica serotype Typhimurium or Salmonella typhi (ATCC 14028), Staphylococcus aureus (NCTC 13277), Bacillus subtilis (ATCC 23857), Escherichia coli (ATCC 25922), and Pseudomonas aeruginosa (ATCC 10145). These strains were obtained from the microbial bank of Dr. Panjwani Center for Molecular Medicine and Drug research (PCMD), International Center for Chemical and Biological Sciences (ICCBS), University of Karachi. Colonies of these bacterial strains were grown in respective agar media, then inoculated in Mueller Hinton (MH) broth (Oxoid, UK) and incubated at 37 °C overnight. The peptide solutions were first diluted 1 in 100 (from the stock solution at 20 mM) and then further two-fold dilution in MH broth in a sterile 96-well plate was performed, resulting in 100 µL of broth containing increasing concentrations of analogs. Bacteria in their exponential growth phase were diluted in MH broth, and 100 µL of this suspension was added in each well. […] Then, these plates were incubated at 37 °C for 20–22 h. MIC (Minimum Inhibitory Concentration) values were determined as the concentrations of peptides causing >99% inhibition of bacterial growth.

The subject of series [6] is P. aeruginosa (ATCC 10145). Briefly: Antibacterial broth microdilution MIC assay. Type of series: cell-based, Pseudomonas aeruginosa. To be noted: Pseudomonas aeruginosa, ATCC10145; >99% inhibition of growth, MH broth, 20-22 h, 37 °C. As for the experimental part: as §2
In series [7] the test system is E. coli (ATCC 25922). Briefly: Antibacterial broth microdilution MIC assay. To be noted: Escherichia coli, ATCC25922; >99% inhibition of growth, MH broth, 20-22 h, 37 °C. The format is cell-based, Escherichia coli. How it is done: as §2
In series [8] the test system is human red blood cells (RBC). As to the kind of experiment: Hemolytic assay. The format is cell-based. To be noted: human, 1 h. As for the experimental part:
For the hemolytic assay, fresh human blood (2 mL) was obtained from a healthy donor in EDTA tube while following the protocol of approval from the Independent Ethics Committee of ICCBS (approval number ICCBS/IEC-047-HB-2019/Protocol/1.0). The blood was centrifuged and upper supernatant plasma was removed. The cell pellets were washed with sterile PBS three times. The washed blood cells were then diluted 25 times to make 4% concentration of the initial blood cells. Red blood cells (500 µL) were treated with increasing concentrations of analogs, with triton X-100 at 0.1% being used as positive control giving 100% hemolysis. After 1 h of incubation at 37 °C, tubes were centrifuged at 800 rpm for 5 min to pellet down red blood cells. After centrifugation, 200 µL of supernatant were transferred into a 96 well plate and the absorbance was recorded at 576 nm using a microplate reader (MultiSkan Go, ThermoScientific). Then, the following formula was applied to calculate percent hemolysis: % Hemolysis=O.D of test sample−O.D of PBS control/O.D of Tritox×positive control−O.D of PBS control×100

Series [9] concerns S. typhi (ATCC 14028). As to the kind of experiment: microbe, parasite or virus in culture. To be noted: Salmonella enterica, read-out: MIC S. typhi (ATCC 14028).

≈ marks a conversion by molar mass, not a printed value.

Consider `C[C@H]1COc2c(N3CCN(C)CC3)c(F)cc3c(=O)c(C(=O)O)cn1c23` [Levofloxacin, reference compound], for which the MIC was > 250 µM in series [1]; 25 µM (≈ 9.03 µg/mL) in [2]; 0.39 µM (≈ 0.141 µg/mL) in series [5]; 1.56 µM (≈ 0.564 µg/mL) in series [6]; 0.78 µM (≈ 0.282 µg/mL) in [7]; 0.39 µM (≈ 0.141 µg/mL) in series [9]. The IC50 in [3] and in [4] was > 100 µM throughout. For the same compound, the “HC50 on Human Red Blood Cells (RBCs)” value in series [8] is given as >100 µM.

The record behind these values is paper PMC11672801, “Synthesis of Temporin-SHa Retro Analogs with Lysine Addition/Substitution and Antibiotic Conjugation to Enhance Antibacterial, Antifungal, and Anticancer Activities” (Antibiotics, 2024).
